Measurements taken from PMC9844320, “Novel CaLB-like Lipase Found Using ProspectBIO, a Software for Genome-Based Bioprospection” (BioTech, 2023).

Experiments:
[1] = target: T1, rLipB (Moesziomyces antarcticus, UniProt P41365); test: spectrofluorimetric release of 4-methylumbelliferone by lyophilized culture supernatant; type: biochemical; settings: pH 7, 0.05 M phosphate, 45 °C; crude lyophilized supernatant
T1 construct: recombinant CaLB secreted constitutively (PGK promoter) by Pichia pastoris; lyophilized culture supernatant, gift of LaBiM, not purified
T1 sequence (P41365 26-342): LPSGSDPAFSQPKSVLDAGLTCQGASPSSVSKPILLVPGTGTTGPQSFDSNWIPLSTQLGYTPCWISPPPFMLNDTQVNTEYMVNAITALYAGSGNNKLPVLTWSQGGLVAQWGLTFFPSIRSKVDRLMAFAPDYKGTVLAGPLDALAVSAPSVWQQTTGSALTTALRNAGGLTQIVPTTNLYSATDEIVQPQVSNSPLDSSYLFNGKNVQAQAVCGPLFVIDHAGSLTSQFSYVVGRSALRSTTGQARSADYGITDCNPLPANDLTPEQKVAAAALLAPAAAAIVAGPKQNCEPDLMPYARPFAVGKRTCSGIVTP

[2] = target: T2, UhL (Ustilago hordei, UniProt I2G5F8); test: spectrofluorimetric release of 4-methylumbelliferone by culture supernatant; type: biochemical; settings: pH 7, 0.05 M phosphate, 45 °C; crude culture supernatant
T2 construct: gene UHOR_02134; codon-optimized gene in pPICZalphaA (alpha-factor secretion), C-terminal 6xHis, 330 residues expressed, 35 kDa predicted / 36 kDa by Western blot, N-glycosylated; Pichia pastoris X-33 culture supernatant, not purified
T2 sequence (I2G5F8 20-343): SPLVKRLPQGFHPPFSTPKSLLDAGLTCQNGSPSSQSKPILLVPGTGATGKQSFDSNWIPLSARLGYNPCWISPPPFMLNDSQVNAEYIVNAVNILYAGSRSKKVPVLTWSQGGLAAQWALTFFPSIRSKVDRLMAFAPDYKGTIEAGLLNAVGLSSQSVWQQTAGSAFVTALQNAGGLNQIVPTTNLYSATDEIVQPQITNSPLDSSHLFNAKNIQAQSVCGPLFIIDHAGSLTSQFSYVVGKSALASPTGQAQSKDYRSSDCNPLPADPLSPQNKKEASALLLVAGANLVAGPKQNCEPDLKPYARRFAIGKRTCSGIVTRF

[3] = target: T2, UhL; test: hydrolysis halo on tributyrin agar plate of expressing clones (wild-type X-33 as control); type: cell-based; settings: BMMY agar, pH 6.0, 30 °C, 4 days, methanol induction

SMILES	relative activity [1]	relative activity [2]	hydrolysis halo on tributyrin agar plate of expressing clones (wild-type X-33 as) [3]
CCCC(=O)Oc1ccc2c(C)cc(=O)oc2c1 [C4, MUF-butyrate]	rLipB activity was increased, as the ester substrate chain length increased up to C7	–	–
CCCCCCC(=O)Oc1ccc2c(C)cc(=O)oc2c1 [MUF-7, MUF-heptanoate]	Both enzymes showed the highest activity with MUF-heptanoate (MUF-7)	Both enzymes showed the highest activity with MUF-heptanoate (MUF-7)	–
CCCC(=O)OCC(COC(=O)CCC)OC(=O)CCC [tributyrin]	–	–	expressed in Pichia pastoris, showing activity against tributyrin triglyceride
